Test results: US9951292B2, “Grease composition” (TOTAL MARKETING SERVICES, priority 2011, dated 2018)

Experiments:
[1] = Biodegradability according to standard OECD 301B
From the text: This only concerns the constituents of the grease the concentration by mass in the grease of which is greater than or equal to 0.1%.

[2] = tested on: algae and daphnia; assay: Aquatic toxicity to algae and daphnia according to standards OECD 201 and 202; type: in vivo
From the text: Preferably, the grease compositions according to the invention contain additives which are not hazardous to the environment and human health. Preferably, the grease compositions according to the invention are free from organic halogenated compounds, nitrite type compounds, metals or metallic compounds other than sodium, potassium, magnesium, calcium, lithium and/or aluminium. Preferably, the grease compositions according to the invention are not toxic to the aquatic environment. In particular the grease compositions according to the invention have an aquatic toxicity to algae, daphnia and fish of at least 1000 mg/l according to standards OECD 201, 202 and 203.
Similarly, the main constituents of the grease, i.e. those present at more than 5% by mass with respect to the total mass of the grease composition, such as the base oil and the soap, have an aquatic toxicity to algae and daphnia of at least 100 mg/l according to standards OECD 201 and 202.
Similarly, when a constituent has an aquatic toxicity to algae and daphnia of at least 100 mg/l according to standards OECD 201 and 202 (category D), said constituent can be present in the grease at any concentration. The grease compositions according to the invention have a concentration by mass of constituents having an aquatic toxicity to algae and daphnia comprised between 10 mg/l and 100 mg/l according to standards OECD 201 and 202 (category E), less than or equal to 25%. The grease compositions according to the invention have a concentration by mass of constituents having an aquatic toxicity to algae and daphnia comprised between 1 mg/l and 10 mg/l according to standards OECD 201 and 202 (category F), less than or equal to 2%, preferably less than or equal to 1%. This only concerns the constituents of the grease the concentration by mass in the grease of which is greater than or equal to 0.1%.

| Compound | biodegradability [1] [%] | aquatic toxicity to algae and daphnia ([2]; in vivo) | aquatic toxicity to algae and daphnia ([2]; OECD 201 and 202) | aquatic toxicity to algae and daphnia, category ([2]; OECD 201 and 202) |
| --- | --- | --- | --- | --- |
| Tolyltriazole [corrosion inhibitor 2] | 4 | 1 to 10 mg/L |  |  |
| CCCCCCC(O)CCCCCCCCCCC(=O)[O-].[Li+] (centres unmarked) [lithium 12-hydroxystearate] |  |  | over 100 mg/l | D (aquatic toxicity to algae and daphnia of at least 100 mg/l according to standards OECD 201 and 202 (category D)) |
| CCCCCCCCCCCCCCCCCCOC(=O)CCc1cc(C(C)(C)C)c(O)c(C(C)(C)C)c1 [antioxidant 2, Octadecyl 3-(3,5-ditertiobutyl-4-hydroxyphenyl) propanoate] |  | over 100 mg/l |  |  |
